Values quoted from earlier work in PMC7765409 (International Journal of Molecular Sciences, 2020).

Experiments:
Parameters in all cases: method as in AstraZeneca data repository
Conditions in all cases: median log of IC50/EC50/Ki/Kd annotations, highest value; ref AstraZeneca data repository; cited from earlier work
CDK6 = test system: CDK6
CDK5R1 = test system: CDK5R1
CDK16 = test system: CDK16
CDK9 = test system: CDK9
CDK5 = test system: CDK5
CDK14 = test system: CDK14
CDK12 = test system: CDK12

CNC(=O)c1nn(C)c2c1C(C)(C)Cc1cnc(Nc3ccc(N4CCN(C)CC4)cc3)nc1-2 [C16, Milciclib]
pXC50 CDK6 (CDK6): 7.61 | pXC50 CDK5R1 (CDK5R1): 6.58 | pXC50 CDK16 (CDK16): 7.10 | pXC50 CDK9 (CDK9): 5.60 | pXC50 CDK5 (CDK5): 6.58 | pXC50 CDK14 (CDK14): 6.13 | pXC50 CDK12 (CDK12): 5.34
